Measured values published in patent US8609608B2, “Antimicrobial peptides” (C3 Jian, Inc., priority 2007, dated 2013).
Where no end group is shown, it is not given here.

Legend:
V. atypica PK1910 = format: cell-based, Veillonella atypica
Protocol: (§1) S. mutans clinical isolates UA140 (32), UA159 (1), T8 (33), ATCC 25175, GS5 (Kuramitsu and Ingersoll (1977) Infect Immun., 17: 330-337), and all gram-positive strains listed below (see Table 9) were grown under anaerobic conditions in brain heart infusion or Todd-Hewitt (TH) broth (Difco) overnight at 37° C. prior to use (Eckert et al. (2006) Antimicrob. Agents Chemother. 50: 3651-3657). Veillonella atypica PK1910 was grown in Veillonella medium (Egland et al. (2004) Proc. Natl. Acad. Sci., USA, 101: 16917-16922). All strains were grown in an anaerobic atmosphere of 80% N2, 10% CO2, and 10% H2.
(§2) Antibacterial growth inhibition assays were performed using sterile 96-well plates in a final volume of 100 μl, TH or Veillonella medium as described previously (Qi et al. (2005) FEMS Microbial Lett. 251: 321-326). Briefly, bacterial cells were grown overnight to an optical density at 600 nm of 0.75 to 0.8 (corresponding to 1×10^8 CFU/ml) and then diluted to 1×10^5 CFU/ml in broth and aliquoted onto plates. An appropriate volume of peptide stock solution (5 to 20 mg/ml, in water or methanol, depending on solubility) was then added to the first column of the plate to give 500 μg/ml or 512 μg/ml, followed by serial 1:2 dilutions across the plate to give wells containing peptides ranging from 500 to 1.95 μg/ml or 512 to 2 μg/ml. Methanol alone was also added to control for the effects of the solvent. The plates were then incubated at 37° C. under anaerobic conditions for 16 to 20 h without shaking, and the MIC was determined as the concentration of peptide present in the last clear well after visual inspection. Up to 5% (vol/vol) methanol was found not to be antimicrobial (data not shown). MICs were determined in triplicate for all bacteria.

S. gordonii Challis DL1 = format: cell-based, Streptococcus gordonii
Protocol: as §1, §2

S. sanguinis NY101 = format: cell-based, Streptococcus sanguinis
Protocol: as §1, §2

[1] = system: clinical isolates of S. mutans; format: cell-based, Streptococcus mutans; settings: clinical isolates of
Protocol: as §1, §2

L. casei ATCC 4646 = format: cell-based, Lactobacillus casei
Protocol: as §1, §2

S. mitis ATCC 903 = format: cell-based, Streptococcus mitis
Protocol: as §1, §2

P. aeruginosa = experiment: MIC against P. aeruginosa; format: cell-based, Pseudomonas aeruginosa

Row | Substance | MIC V. atypica PK1910 (V. atypica PK1910) [µg/mL] | MIC S. gordonii Challis DL1 (S. gordonii Challis DL1) [µg/mL] | MIC S. sanguinis NY101 (S. sanguinis NY101) [µg/mL] | MIC [1] [µg/mL] | MIC L. casei ATCC 4646 (L. casei ATCC 4646) [µg/mL] | MIC S. mitis ATCC 903 (S. mitis ATCC 903) [µg/mL] | MIC P. aeruginosa (P. aeruginosa) [µg/mL] | MIC E. faecalis (E. faecalis) [µg/mL] | MIC S. mutans [1] [µg/mL] | MIC S. aureus (S. aureus) [µg/mL] | MIC L. casei (L. casei) [µg/mL] | MIC (fusion library peptides) [1] [µg/mL]
1 | RWRWRWF-NH2 [Peptide 2C-4, RWRWRWF*] | 64 | 32 | 32 | 4 to 8 | 32 | 32 | – | – | – | – | – | –
2 | FKFLFKFLF [Peptide S3L8-38, FKFLFKFLF] | – | – | – | – | – | – | >125 | >125 | >125 | >125 | 32 | –
3 | WRWRARWRWRLRWRF [Peptide S3L8-3, WRWRARWRWRLRWRF] | – | – | – | – | – | – | >125 | 8 | 4 | 16 | 16 | –
4 | FKKFWKWFRRFGGGRWRWRWF-NH2 [FBRW-14, FKKFWKWFRRF-GGG-RWRWRWF*] | 8 | 32 | 16 | – | 8 | 64 | – | – | – | – | – | 4 to 16
5 | VFKRVLIHKLIF [Peptide S3L8-23, VFKRVLIHKLIF] | – | – | – | – | – | – | >125 | 32 | >125 | >125 | 62.5 | –
6 | LRIHARFKVHIRLKF [Peptide S3L8-5, LRIHARFKVHIRLKF] | – | – | – | – | – | – | >125 | 12 | 60 | >125 | 8 | –
7 | RWRRLLKKLHHLLHGGGFKKFWKWFRRF-NH2 [FBα-20, RWRRLLKKLHHLLH-GGG-FKKFWKWFRRF*] | 8 | 16 | 16 | – | 8 | 32 | – | – | – | – | – | 4 to 8
8 | LRLFLRWLF [Peptide S3L8-39, LRLFLRWLF] | – | – | – | – | – | – | >125 | 32 | 16 | 16 | 16 | –
9 | LRHRLRHRLIF [Peptide S3L8-31, LRHRLRHRLIF] | – | – | – | – | – | – | >125 | 125 | >125 | >125 | >62.5 | –
10 | FKHKFKHKFIF [Peptide S3L8-30, FKHKFKHKFIF] | – | – | – | – | – | – | >125 | >125 | >125 | >125 | >62.5 | –
11 | VFRHRFIHRHVF [Peptide S3L8-19, VFRHRFIHRHVF] | – | – | – | – | – | – | >125 | >125 | >125 | >125 | >62.5 | –
12 | FKFLFKHKF [Peptide S3L8-40, FKFLFKHKF] | – | – | – | – | – | – | >125 | 62.5 | 30 | >125 | 62.5 | –
13 | FKFLFKF [Peptide S3L8-42, FKFLFKF] | – | – | – | – | – | – | >125 | >125 | >125 | >125 | >62.5 | –
14 | VLKHVIAHKRLF [Peptide S3L8-25, VLKHVIAHKRLF] | – | – | – | – | – | – | >125 | >125 | >125 | >125 | >62.5 | –
15 | WIWKHKFLHRHFLF [Peptide S3L8-12, WIWKHKFLHRHFLF] | – | – | – | – | – | – | >125 | 125 | 125 | >125 | >62.5 | –
16 | FIRKFLFKHLF [Peptide S3L8-26, FIRKFLFKHLF] | – | – | – | – | – | – | >125 | 24 | 16 | 62.5 | 16 | –

Row | Substance | MIC V. atypica PK1910 (V. atypica PK1910) [µg/mL] | MIC S. gordonii Challis DL1 (S. gordonii Challis DL1) [µg/mL] | MIC S. sanguinis NY101 (S. sanguinis NY101) [µg/mL] | MIC [1] [µg/mL] | MIC L. casei ATCC 4646 (L. casei ATCC 4646) [µg/mL] | MIC S. mitis ATCC 903 (S. mitis ATCC 903) [µg/mL] | MIC P. aeruginosa (P. aeruginosa) [µg/mL] | MIC E. faecalis (E. faecalis) [µg/mL] | MIC S. mutans [1] [µg/mL] | MIC S. aureus (S. aureus) [µg/mL] | MIC L. casei (L. casei) [µg/mL] | MIC (fusion library peptides) [1] [µg/mL]
17 | FKFKHKLIF [Peptide S3L8-36, FKFKHKLIF] | – | – | – | – | – | – | >125 | >125 | >125 | >125 | >62.5 | –
18 | FLFKHLFLHRIFF [Peptide S3L8-16, FLFKHLFLHRIFF] | – | – | – | – | – | – | >125 | >125 | >125 | >125 | >62.5 | –
19 | FRHRFRHRF [Peptide S3L8-34, FRHRFRHRF] | – | – | – | – | – | – | >125 | >125 | >125 | >125 | >62.5 | –
20 | FVFRHKWVWKHRFLF [Peptide S3L8-1, FVFRHKWVWKHRFLF] | – | – | – | – | – | – | >125 | 32 | 16 | >125 | 62.5 | –
21 | LKAKIKFKVKLKIKF [Peptide S3L8-11, LKAKIKFKVKLKIKF] | – | – | – | – | – | – | 32 to 62.5 | 39 | 8 | 125 | 3 | –
22 | FLFRHRFRHRLVF [Peptide S3L8-28, FLFRHRFRHRLVF] | – | – | – | – | – | – | >125 | 62.5 | 60 | >125 | >62.5 | –
23 | LRLFLRHRF [Peptide S3L8-41, LRLFLRHRF] | – | – | – | – | – | – | >125 | 62.5 | 16 | >125 | >62.5 | –
24 | LVHKLILRHLLF [Peptide S3L8-22, LVHKLILRHLLF] | – | – | – | – | – | – | >125 | >125 | >125 | >125 | >62.5 | –
25 | VLIRILVRVIF [Peptide S3L8-33, VLIRILVRVIF] | – | – | – | – | – | – | >125 | 16 | >125 | 125 | 16 | –
26 | LKHKLKHKF [Peptide S3L8-35, LKHKLKHKF] | – | – | – | – | – | – | >125 | >125 | >125 | >125 | >62.5 | –
27 | LRLFLRF [Peptide S3L8-43, LRLFLRF] | – | – | – | – | – | – | >125 | >125 | >125 | >125 | >62.5 | –
28 | FLHKHLFKHKLF [Peptide S3L8-18, FLHKHLFKHKLF] | – | – | – | – | – | – | >125 | >125 | >125 | >125 | >62.5 | –
29 | LRLRHRVLF [Peptide S3L8-37, LRLRHRVLF] | – | – | – | – | – | – | >125 | >125 | >125 | >125 | >62.5 | –
30 | LILKFLFKFVF [Peptide S3L8-32, LILKFLFKFVF] | – | – | – | – | – | – | >125 | 16 | 31 | 16 | 16 | –
31 | VIRHVWVRKLF [Peptide S3L8-27, VIRHVWVRKLF] | – | – | – | – | – | – | >125 | >125 | 60 | >125 | >62.5 | –
32 | VLRHLFRHRIVF [Peptide S3L8-21, VLRHLFRHRIVF] | – | – | – | – | – | – | >125 | 93.5 | 60 | >125 | >62.5 | –
